In patent publication US20240349727A1, “SYNERGY BETWEEN MIXTURES OF ISOTHIOCYANATES AND COMMERCIAL FUNGICIDES” (priority 2021, published 2024):
Like-named read-outs stand apart in the source and are kept apart here.

How the values were obtained:
Type in all cases: cell-based
[1] = tested on: Alternaria radicina; assay: In vitro fungitoxic activity, 48-well PDA outgrowth, curative; conditions: 168 h, read-out: EC50 fungicide
Description: (§1) All the experiments were done in the same way, with small differences between curative and preventive cases. In 48-well plates, each well was filled with a volume of 180 μL of the ITC, the fungicide or a combination of both at various concentrations and filled with 180 μL of Potato Dextrose Agar (PDA). Three wells were used per concentration for better accuracy. After solidification of the well, either a plug of 2×2 mm of grown fungi (curative case) or 20 μL of a spore solution (˜1E5 spores/mL, preventive case) was placed in each well, and the 48-well plate was sealed with parafilm. After 7 days of incubation at 20° C. in a controlled growth chamber, the fungal outgrowth was measured and the EC50 was calculated with a 4-parameter logistic regression in XLSTAT.
(§2) Afterward, a concentration of the fungicides at which the fungi is not growing (i.e. […] the EC50) was determined. Applicants repeated the 48-well experiment by filling the well with a mixture of the ITO and the fungicides; the fungicide concentration was kept constant at the determined concentration mentioned above and the ITO concentration was varied. As before, the fungal outgrowth was measured after 7 days of incubation. To calculate the synergistic properties of the combo ITO+fungicides, the Combination Index (CI) described by Chou (2006) was calculated using the CompuSyn software.

[2] = tested on: Rhizoctonia solani; assay: as above; conditions: 168 h, fungicide alone, 7 days at 20° C.
Description: as §1, §2

[3] = tested on: Lasiodiplodia pseudotheobromae; assay: In vitro fungitoxic activity, 48-well PDA outgrowth, curative (Example 2); conditions: 168 h, read-out: EC50 fungicide
Description: as §1, with “way.” for “way, with small differences between curative and preventive cases.”, “Two or three” for “Three”, “well” for “well, either”, “fungi” for “fungi (curative case) or 20 μL of a spore solution (˜1E5 spores/mL, preventive case)”, “room temperature,” for “20° C. in a controlled growth chamber,”
as §2, with “ITC” for “ITO”, “ITC+fungicides,” for “ITO+fungicides,”

[4] = tested on: Fusarium verticilloides; assay: as above; conditions: 168 h, fungicide alone, 7 days at room temperature
Description: as §1, with “way.” for “way, with small differences between curative and preventive cases.”, “Two or three” for “Three”, “well” for “well, either”, “fungi” for “fungi (curative case) or 20 μL of a spore solution (˜1E5 spores/mL, preventive case)”, “room temperature,” for “20° C. in a controlled growth chamber,”
as §2, with “ITC” for “ITO”, “ITC+fungicides,” for “ITO+fungicides,”

[5] = tested on: Rhizoctonia solani; assay: In vitro fungitoxic activity, 48-well PDA outgrowth, preventive (spore solution); conditions: 168 h, fungicide alone, 7 days at 20° C.
Description: as §1, §2

[6] = tested on: Colletotrichum acutatum; assay: In vitro fungitoxic activity, 48-well PDA outgrowth, curative (Example 2); conditions: 168 h, fungicide alone, 7 days at room temperature
Description: as §1, with “way.” for “way, with small differences between curative and preventive cases.”, “Two or three” for “Three”, “well” for “well, either”, “fungi” for “fungi (curative case) or 20 μL of a spore solution (˜1E5 spores/mL, preventive case)”, “room temperature,” for “20° C. in a controlled growth chamber,”
as §2, with “ITC” for “ITO”, “ITC+fungicides,” for “ITO+fungicides,”

[7] = tested on: Geotrichum candidum; assay: In vitro fungitoxic activity, 48-well PDA outgrowth, curative; conditions: 168 h, read-out: EC50 fungicide
Description: as §1, §2

[8] = tested on: Penicillium digitatum; assay: as above; conditions: 168 h, read-out: EC50 fungicide
Description: as §1, §2

[9] = tested on: Botrytis cinerea; assay: as above; conditions: 168 h, read-out: EC50 fungicide
Description: as §1, §2

[10] = tested on: Plectosphaerella cucumerina; assay: In vitro fungitoxic activity, 48-well PDA outgrowth, curative (Example 2); conditions: 168 h, read-out: EC50 fungicide
Description: as §1, with “way.” for “way, with small differences between curative and preventive cases.”, “Two or three” for “Three”, “well” for “well, either”, “fungi” for “fungi (curative case) or 20 μL of a spore solution (˜1E5 spores/mL, preventive case)”, “room temperature,” for “20° C. in a controlled growth chamber,”
as §2, with “ITC” for “ITO”, “ITC+fungicides,” for “ITO+fungicides,”

[11] = tested on: Geotrichum candidum; assay: In vitro fungitoxic activity, 48-well PDA outgrowth, preventive (spore solution); conditions: 168 h, fungicide alone, 7 days at 20° C.
Description: as §1, §2

[12] = tested on: Penicillium commune; assay: In vitro fungitoxic activity, 48-well PDA outgrowth, curative (Example 2); conditions: 168 h, fungicide alone, 7 days at room temperature
Description: as §1, with “way.” for “way, with small differences between curative and preventive cases.”, “Two or three” for “Three”, “well” for “well, either”, “fungi” for “fungi (curative case) or 20 μL of a spore solution (˜1E5 spores/mL, preventive case)”, “room temperature,” for “20° C. in a controlled growth chamber,”
as §2, with “ITC” for “ITO”, “ITC+fungicides,” for “ITO+fungicides,”

[13] = fungicide alone, curative, 7 days at 20° C.
[14] = fungicide alone, curative, 7 days at room temperature

Which EC50 [1, 13] does the source give for Cc1cc(C)nc(Nc2ccccc2)n1 [Pyrimethanil] here?
The EC50 was 3 µM.

What about the EC50 [2] of the same compound?
Its EC50 is 28 µM.

For Cc1cc(C2CC2)nc(Nc2ccccc2)n1 [Cyprodinil], which EC50 [3, 14] is on record?
The EC50 was 9 µM.

O=C1C2CC=CCC2C(=O)N1SC(Cl)(Cl)Cl (stereo not shown) [Captan] was tested. Which EC50 [4] did it give?
The EC50 was 424 µM.

What does the source list for N#Cc1c(Cl)c(Cl)c(Cl)c(C#N)c1Cl [Chlorothalonil]?
EC50 [2]: 29 µM; EC50 [5]: 2 µM; EC50 [6]: 52 µM

Which EC50 [3] does the source give for N#Cc1c[nH]cc1-c1cccc2c1OC(F)(F)O2 [Fludioxonil] here?
Its EC50 is 1 µM.

CCCCCCCCCCCCNC(=N)N [Dodine] was tested. Which EC50 [7] did it give?
The EC50 was 156 µM.

What about the EC50 [1] of the same compound?
Its EC50 is 110 µM.

What about the EC50 [8] of the same compound?
The EC50 was 92 µM.

What about the EC50 [9] of the same compound?
The EC50 was 189 µM.

What about the EC50 [10] of the same compound?
Its EC50 is 93 µM.

What about the EC50 [3] of the same compound?
The EC50 was 476 µM.

CC(C)(C)C(O)(CCc1ccc(Cl)cc1)Cn1cncn1 (stereo not shown) [Tebuconazole] was tested. Which EC50 [7, 13] did it give?
The EC50 was 27 µM.

And the EC50 [1, 13]?
Its EC50 is 30 µM.

And the EC50 [8, 13]?
Its EC50 is 1 µM.

And the EC50 [2]?
The EC50 was 18 µM.

What about the EC50 [11] of the same compound?
Its EC50 is 25 µM.

And the EC50 [12]?
Its EC50 is 179 µM.

And the EC50 [3, 14]?
Its EC50 is 300 µM.

And the EC50 [4]?
The EC50 was 6 µM.
